Laboratory results taken from PubChem BioAssay (NCI).
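Each compound was tested at five concentrations against cells in 96-well plates for 48 hours. Abbreviation: GI50, concentration required for 50% inhibition of growth. TGI is the concentration that stops growth completely.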

Tests used:
Test in all cases: NCI tumour cell line growth inhibition, 48 h
[1] = tested on: SR leukemia
[2] = tested on: OVCAR-5 ovarian
[3] = tested on: OVCAR-4 ovarian
[4] = tested on: HCT-116 colon
[5] = tested on: MOLT-4 leukemia
[6] = tested on: 786-0 renal
[7] = tested on: BT-549 breast
[8] = tested on: SK-MEL-5 melanoma
[9] = tested on: SNB-75 CNS
[10] = tested on: COLO 205 colon
[11] = tested on: NCI-H460 lung
[12] = tested on: U251 CNS
[13] = tested on: SK-MEL-28 melanoma
[14] = tested on: MDA-MB-435
[15] = tested on: UO-31 renal
[16] = tested on: NCI-H226 lung
[17] = tested on: UACC-62 melanoma
[18] = tested on: NCI-H522 lung

| SMILES | TGI [1] [µM] | TGI [2] [µM] | TGI [3] [µM] | TGI [4] [µM] | TGI [5] [µM] | TGI [6] [µM] | TGI [7] [µM] | TGI [8] [µM] | TGI [9] [µM] | TGI [10] [µM] | TGI [11] [µM] | TGI [12] [µM] | TGI [13] [µM] | TGI [14] [µM] | TGI [15] [µM] | TGI [16] [µM] | TGI [17] [µM] | TGI [18] [µM] | GI50 [17] [µM] | GI50 [4] [µM] |
| --- | --- | --- | --- | --- | --- | --- | --- | --- | --- | --- | --- | --- | --- | --- | --- | --- | --- | --- | --- | --- |
| C/C(=N\Nc1nc2ccccc2[nH]1)c1ccncn1 | > 100 | > 100 | > 100 | 26.8 | > 100 | > 100 | > 100 | 13.4 | > 74.5 | > 47.4 | > 100 | > 100 | > 63 | > 100 | – | – | – | – | – | – |
| O=c1[nH]c(=O)n(C2CC(O)C(COP(=O)(O)OC3CC(n4cc(F)c(=O)[nH]c4=O)OC3COP(=O)(O)OC3CC(n4cc(F)c(=O)[nH]c4=O)OC3COP(=O)(O)OC3CC(n4cc(F)c(=O)[nH]c4=O)OC3COP(=O)(O)OC3CC(n4cc(F)c(=O)[nH]c4=O)OC3COP(=O)(O)OC3CC(n4cc(F)c(=O)[nH]c4=O)OC3COP(=O)(O)OC3CC(n4cc(F)c(=O)[nH]c4=O)OC3COP(=O)(O)OC3CC(n4cc(F)c(=O)[nH]c4=O)OC3COP(=O)(O)OC3CC(n4cc(F)c(=O)[nH]c4=O)OC3COP(=O)(O)OC3CC(n4cc(F)c(=O)[nH]c4=O)OC3CO)O2)cc1F (stereo not drawn) | > 50 | > 50 | > 50 | > 50 | > 50 | > 50 | > 50 | > 50 | > 50 | > 50 | – | > 50 | > 50 | > 50 | > 50 | > 50 | – | – | – | – |
| COc1cc(COC(=O)N2CCCCC2C(=O)O)c([N+](=O)[O-])cc1OC (stereo not drawn) | > 100 | > 100 | – | > 100 | > 100 | > 100 | > 100 | > 100 | > 100 | > 100 | > 100 | > 100 | > 100 | > 100 | > 100 | > 100 | > 100 | – | – | – |
| O=C(O)CN1CCNCCN(CC(=O)O)CCNCC1 | > 96.5 | > 100 | > 100 | > 100 | > 100 | > 100 | > 100 | 21.9 | 98.9 | > 36.4 | > 50.5 | > 100 | – | > 100 | > 100 | > 100 | > 100 | > 100 | – | – |
| CC1CC(=O)N2CCCNC2=C1C#N (stereo not drawn) | > 100 | – | > 100 | > 100 | > 100 | > 100 | > 100 | > 100 | > 100 | > 100 | > 100 | > 100 | > 100 | > 100 | > 100 | > 100 | > 100 | > 100 | – | – |
| CC/C(Cl)=N\OC(=O)Nc1ccccc1OC(F)(F)F | – | 36.9 | 41.6 | 27 | 4.77 | 23.5 | 11.5 | 22.1 | 48.2 | 3.79 | 44.2 | > 57.8 | 41.5 | 40.7 | 18.2 | 38.1 | 37.1 | 2.9 | – | – |
| COc1ccc(-n2nnc3c(C#N)c(-c4ccccc4)c(C)n3c2=O)cc1 | 91 | > 100 | > 100 | > 100 | – | 40 | > 100 | 48 | 72.1 | > 100 | > 100 | > 100 | > 100 | > 100 | > 100 | > 100 | > 100 | > 100 | – | – |
| CN(C)CCCc1cccnc1 | > 100 | > 100 | > 100 | > 100 | – | > 100 | > 100 | > 100 | > 100 | > 100 | > 100 | > 100 | > 100 | > 100 | > 100 | > 100 | > 100 | > 100 | – | – |
| CCCCCCNC(=O)c1cc(C#Cc2cc(OC)ccc2OC)ccc1OC | > 100 | > 100 | > 100 | > 100 | > 100 | > 100 | > 100 | > 100 | – | > 100 | > 100 | > 100 | > 100 | 13.4 | > 100 | – | > 100 | > 100 | 56.8 | 6.9 |
| COCC[N+](CCNC(=O)c1cccc2c(N)c3cccc(C)c3nc12)(CCOC)Cc1ccc([N+](=O)[O-])cc1 | 35.3 | > 100 | > 100 | 58 | 39.2 | > 100 | 64.5 | 22.9 | 61.7 | 43 | 29.5 | > 100 | 52 | 83.4 | > 100 | – | 42.5 | 36.3 | – | – |
| Cn1c(N(CCO)CCO)cnc1[N+](=O)[O-] | > 100 | > 100 | > 100 | > 100 | > 100 | > 100 | > 100 | > 100 | > 100 | > 100 | > 100 | > 100 | – | > 100 | > 100 | > 100 | > 100 | > 100 | – | – |
| NC(=O)Cc1ncn(-c2ccccc2)n1 | > 100 | > 100 | – | > 100 | > 100 | > 100 | > 100 | > 100 | > 100 | > 100 | – | – | – | > 100 | > 100 | > 100 | > 100 | > 100 | – | – |
| COC(=O)C1=C(C(=O)OC)SC(=C2c3ccsc3-c3sccc32)S1 | > 100 | > 100 | – | > 100 | > 100 | 56.8 | > 100 | > 100 | 35.6 | > 100 | > 100 | 98.5 | > 100 | > 100 | > 100 | > 100 | > 100 | – | – | – |
| O=C(Cn1c(C(=O)/C=C/c2ccco2)nc2ccccc21)c1ccc(Cl)cc1 | 16.4 | > 100 | 65 | 39.9 | – | 31.4 | 42.9 | 97.1 | > 100 | 49.2 | 27.2 | > 100 | > 100 | 32.7 | 94.3 | > 100 | > 100 | – | – | – |
